Laboratory results taken from PubChem BioAssay (NCI).
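Growth conditions: 96-well plates. Treatment: test compound, 48 hours, 5 concentrations. Analysis: linear interpolation between bracketing concentrations; unreached endpoints set to highest concentration. Abbreviation: GI50, concentration required for 50% inhibition of growth. TGI is the concentration that stops growth completely.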

Experiments:
Experiment in all cases: inhibition of tumour cell growth, NCI panel, 48 h; in the data active means GI50 below about 0.43 µM; inactive means the rest
K-562 leukemia = test system: K-562 leukemia
SF-295 CNS = test system: SF-295 CNS
M19-MEL melanoma = test system: M19-MEL melanoma
HCT-116 colon = test system: HCT-116 colon
A498 renal = test system: A498 renal
NCI-H226 lung = test system: NCI-H226 lung
DMS 273 small cell lung = test system: DMS 273 small cell lung
SW-620 colon = test system: SW-620 colon
OVCAR-5 ovarian = test system: OVCAR-5 ovarian
NCI-H23 lung = test system: NCI-H23 lung

COC(=O)/C=C1\CCC2[C@@H](C(=O)CC3[C@]2(C)CCC[C@@]3(C)C(=O)OC)C1C (some centres not stated)
39.7 µM: TGI (M19-MEL melanoma)
56.6 µM: TGI (NCI-H226 lung)
64.1 µM: TGI (SW-620 colon)
71.8 µM: TGI (SF-295 CNS)
> 100 µM: TGI (OVCAR-5 ovarian)
48.3 µM: TGI (HCT-116 colon)
99.7 µM: TGI (A498 renal)
41.3 µM: TGI (K-562 leukemia)
52.4 µM: TGI (DMS 273 small cell lung)

Cc1nc2ccccc2c(=O)n1/N=C(\N=Nc1ccccc1)c1ccccc1Cl
> 100 µM: TGI (K-562 leukemia) | TGI (SF-295 CNS) | TGI (M19-MEL melanoma) | TGI (A498 renal) | TGI (NCI-H226 lung) | TGI (NCI-H23 lung) | TGI (DMS 273 small cell lung) | TGI (SW-620 colon) | TGI (OVCAR-5 ovarian)

C[C@]12Cc3conc3C(O)=C1CC[C@@H]1C2CC[C@@]2(C)C1CC[C@@H]2O (some centres not stated)
> 100 µM: TGI (K-562 leukemia) | TGI (SW-620 colon) | TGI (OVCAR-5 ovarian)
64.3 µM: TGI (NCI-H23 lung)
25.2 µM: TGI (DMS 273 small cell lung)
88.3 µM: TGI (SF-295 CNS)
56.8 µM: TGI (NCI-H226 lung)
57.7 µM: TGI (A498 renal)
74.5 µM: TGI (M19-MEL melanoma)

O=C1CCCc2ccc([N+](=O)[O-])c(O)c21
> 100 µM: TGI (K-562 leukemia) | TGI (SF-295 CNS) | TGI (M19-MEL melanoma) | TGI (HCT-116 colon) | TGI (A498 renal) | TGI (NCI-H226 lung) | TGI (NCI-H23 lung) | TGI (DMS 273 small cell lung) | TGI (SW-620 colon) | TGI (OVCAR-5 ovarian)

C=CC12CCCCC1CC(C(=O)OC)=C(O)C2 (configuration not stated)
> 100 µM: TGI (K-562 leukemia) | TGI (SF-295 CNS) | TGI (M19-MEL melanoma) | TGI (HCT-116 colon) | TGI (NCI-H226 lung) | TGI (NCI-H23 lung) | TGI (DMS 273 small cell lung) | TGI (SW-620 colon) | TGI (OVCAR-5 ovarian)

O=S1Nc2cccc(C(F)(F)F)c2S1 (configuration not stated)
> 100 µM: TGI (K-562 leukemia) | TGI (SF-295 CNS) | TGI (M19-MEL melanoma) | TGI (HCT-116 colon) | TGI (NCI-H226 lung) | TGI (NCI-H23 lung) | TGI (DMS 273 small cell lung) | TGI (OVCAR-5 ovarian)
97.3 µM: TGI (A498 renal)
23.8 µM: TGI (SW-620 colon)

N#CC(Sc1ccccc1)C(N)=O (configuration not stated)
> 100 µM: TGI (K-562 leukemia) | TGI (SF-295 CNS) | TGI (M19-MEL melanoma) | TGI (HCT-116 colon) | TGI (A498 renal) | TGI (NCI-H226 lung) | TGI (NCI-H23 lung) | TGI (DMS 273 small cell lung) | TGI (SW-620 colon) | TGI (OVCAR-5 ovarian)

c1cc[c]([Ge]([O]c2cccc3cccnc23)([c]2ccccc2)[c]2ccccc2)cc1
12.7 µM: TGI (HCT-116 colon)
25.7 µM: TGI (A498 renal)
8.16 µM: TGI (NCI-H23 lung)
12.4 µM: TGI (DMS 273 small cell lung)
29.5 µM: TGI (OVCAR-5 ovarian)
23.8 µM: TGI (SF-295 CNS)
7.46 µM: TGI (SW-620 colon)
inactive: GI50 (SF-295 CNS) 11.2 µM | GI50 (M19-MEL melanoma) 3.46 µM | GI50 (HCT-116 colon) 3.41 µM | GI50 (A498 renal) 13 µM | GI50 (NCI-H226 lung) 6.33 µM | GI50 (NCI-H23 lung) 2960 nM | GI50 (DMS 273 small cell lung) 3.46 µM | GI50 (SW-620 colon) 3.02 µM | GI50 (OVCAR-5 ovarian) 15.9 µM
23 µM: TGI (NCI-H226 lung)
12.1 µM: TGI (M19-MEL melanoma)

O=CN/C=C/c1ccccc1
> 31.6 µM: TGI (K-562 leukemia)
> 100 µM: TGI (SF-295 CNS) | TGI (M19-MEL melanoma) | TGI (HCT-116 colon) | TGI (A498 renal) | TGI (NCI-H226 lung) | TGI (NCI-H23 lung) | TGI (DMS 273 small cell lung) | TGI (OVCAR-5 ovarian)
> 85.6 µM: TGI (SW-620 colon)

COc1ccc2cc3c4cc(OC)c(OC)cc4ccn3c2c1
> 100 µM: TGI (K-562 leukemia) | TGI (SF-295 CNS) | TGI (M19-MEL melanoma) | TGI (A498 renal) | TGI (NCI-H226 lung) | TGI (NCI-H23 lung) | TGI (DMS 273 small cell lung) | TGI (SW-620 colon) | TGI (OVCAR-5 ovarian)

O=CCCn1[nH]c(=O)ccc1=O
> 100 µM: TGI (K-562 leukemia) | TGI (SF-295 CNS) | TGI (M19-MEL melanoma) | TGI (HCT-116 colon) | TGI (A498 renal) | TGI (NCI-H226 lung) | TGI (NCI-H23 lung) | TGI (DMS 273 small cell lung) | TGI (SW-620 colon) | TGI (OVCAR-5 ovarian)

CC1OC(n2cc(F)c(=O)[nH]c2=O)CCC1=O (configuration not stated)
> 100 µM: TGI (K-562 leukemia) | TGI (SF-295 CNS) | TGI (M19-MEL melanoma) | TGI (HCT-116 colon) | TGI (A498 renal) | TGI (NCI-H226 lung) | TGI (DMS 273 small cell lung) | TGI (SW-620 colon) | TGI (OVCAR-5 ovarian)

CN(C)CC1(C)CC/C(=C\c2ccc(Cl)cc2)C1=O (configuration not stated)
35.5 µM: TGI (SW-620 colon)
50.7 µM: TGI (DMS 273 small cell lung)
> 100 µM: TGI (K-562 leukemia) | TGI (SF-295 CNS) | TGI (M19-MEL melanoma) | TGI (HCT-116 colon) | TGI (A498 renal) | TGI (NCI-H226 lung) | TGI (NCI-H23 lung) | TGI (OVCAR-5 ovarian)

NC1=NN(c2ccccc2)C(=O)C1C(=O)C(=O)Nc1ccccc1 (configuration not stated)
> 100 µM: TGI (K-562 leukemia) | TGI (SF-295 CNS) | TGI (M19-MEL melanoma) | TGI (HCT-116 colon) | TGI (A498 renal) | TGI (NCI-H226 lung) | TGI (NCI-H23 lung) | TGI (DMS 273 small cell lung) | TGI (SW-620 colon) | TGI (OVCAR-5 ovarian)

CC(=O)N1c2ccccc2N(C(C)=O)C1c1ccc(C2N(C(C)=O)c3ccccc3N2C(C)=O)[nH]1
> 100 µM: TGI (K-562 leukemia) | TGI (SF-295 CNS) | TGI (M19-MEL melanoma) | TGI (HCT-116 colon) | TGI (A498 renal) | TGI (NCI-H226 lung) | TGI (NCI-H23 lung) | TGI (DMS 273 small cell lung) | TGI (SW-620 colon) | TGI (OVCAR-5 ovarian)

COc1cccc(/C=C2\CCC(CN(C)C)C2=O)c1 (configuration not stated)
8.52 µM: TGI (SW-620 colon)
33.6 µM: TGI (NCI-H226 lung)
30.8 µM: TGI (SF-295 CNS)
29.6 µM: TGI (OVCAR-5 ovarian)
21.5 µM: TGI (M19-MEL melanoma)
4.89 µM: TGI (K-562 leukemia)
27.3 µM: TGI (NCI-H23 lung)
31.5 µM: TGI (A498 renal)
26.2 µM: TGI (DMS 273 small cell lung)
16 µM: TGI (HCT-116 colon)

C=CCCn1nc(-c2ccccc2)oc1=O
> 100 µM: TGI (K-562 leukemia) | TGI (SF-295 CNS) | TGI (M19-MEL melanoma) | TGI (HCT-116 colon) | TGI (A498 renal) | TGI (NCI-H226 lung) | TGI (NCI-H23 lung) | TGI (DMS 273 small cell lung) | TGI (SW-620 colon) | TGI (OVCAR-5 ovarian)
